PubChem BioAssay (NCI)
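GI50 is the concentration that inhibits growth by half. TGI denotes the concentration required for complete inhibition of growth.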

What was measured:
Experiment in all cases: NCI-60 cell line screen, 384-well format
[1] = system: 786-0 renal
[2] = system: A498 renal
[3] = system: A549 NSCLC
[4] = system: ACHN renal
[5] = system: BT-549 breast
[6] = system: CAKI-1 renal
[7] = system: CCRF-CEM leukemia
[8] = system: COLO 205 colon
[9] = system: DU-145 prostate
[10] = system: EKVX NSCLC
[11] = system: HCC-2998 colon
[12] = system: HCT-116 colon
[13] = system: HCT-15 colon
[14] = system: HL-60(TB) leukemia
[15] = system: HOP-62 NSCLC
[16] = system: HOP-92 NSCLC
[17] = system: HS 578T breast
[18] = system: HT29 colon
[19] = system: IGROV1 ovarian
[20] = system: K-562 leukemia
[21] = system: KM12 colon
[22] = system: LOX IMVI melanoma
[23] = system: M14 melanoma
[24] = system: MALME-3M melanoma
[25] = system: MCF7 breast
[26] = system: MDA-MB-231 breast
[27] = system: MDA-MB-435 melanoma
[28] = system: MDA-MB-468 breast
[29] = system: MOLT-4 leukemia
[30] = system: NCI-H226 lung
[31] = system: NCI-H23 lung
[32] = system: NCI-H322M lung
[33] = system: NCI-H460 NSCLC
[34] = system: NCI-H522 lung
[35] = system: NCI/ADR-RES ovarian
[36] = system: OVCAR-3 ovarian
[37] = system: OVCAR-4 ovarian
[38] = system: OVCAR-8 ovarian
[39] = system: PC-3 prostate
[40] = system: RPMI-8226 leukemia
[41] = system: RXF 393 renal
[42] = system: SF-268 CNS
[43] = system: SF-295 CNS
[44] = system: SF-539 CNS
[45] = system: SK-MEL-28 melanoma
[46] = system: SK-MEL-5 melanoma
[47] = system: SK-OV-3 ovarian
[48] = system: SN12C renal
[49] = system: SNB-19 CNS
[50] = system: SNB-75 CNS
[51] = system: SW-620 colon
[52] = system: T-47D breast
[53] = system: TK-10 renal
[54] = system: U251 glioblastoma
[55] = system: UACC-257 melanoma
[56] = system: UACC-62 melanoma
[57] = system: UO-31 renal

## COc1cc(N2CCC(N)CC2)ccc1Nc1ncc(Cl)c(-c2c[nH]c3ccccc23)n1
[1]
  GI50: 1010 nM
  TGI: 2190 nM
[2]
  GI50: 296 nM
  TGI: 1330 nM
[3]
  GI50: 858 nM
  TGI: 2120 nM
[4]
  GI50: 535 nM
  TGI: 1860 nM
[5]
  GI50: 1140 nM
  TGI: 2360 nM
[6]
  GI50: 252 nM
  TGI: 1070 nM
[7]
  GI50: 886 nM
  TGI: 2100 nM
[8]
  GI50: 44.1 nM
  TGI: 1070 nM
[9]
  GI50: 389 nM
  TGI: 1710 nM
[10]
  GI50: 215 nM
  TGI: 1470 nM
[11]
  GI50: 349 nM
  TGI: 1680 nM
[12]
  GI50: 361 nM
  TGI: 1580 nM
[13]
  GI50: 265 nM
  TGI: 1460 nM
[14]
  GI50: 21.4 nM
  TGI: 424 nM
[15]
  GI50: 1220 nM
  TGI: 2490 nM
[16]
  GI50: 377 nM
  TGI: 1670 nM
[17]
  GI50: 651 nM
  TGI: 1870 nM
[18]
  GI50: 55.9 nM
  TGI: 1350 nM
[19]
  GI50: 284 nM
  TGI: 1000 nM
[20]
  GI50: 876 nM
  TGI: 2130 nM
[21]
  GI50: 209 nM
  TGI: 679 nM
[22]
  GI50: 541 nM
  TGI: 1860 nM
[23]
  GI50: 388 nM
  TGI: 1620 nM
[24]
  GI50: 172 nM
  TGI: 1510 nM
[25]
  GI50: 59.5 nM
  TGI: 1220 nM
[26]
  GI50: 1080 nM
  TGI: 2300 nM
[27]
  GI50: 395 nM
  TGI: 1790 nM
[28]
  GI50: 667 nM
  TGI: 1930 nM
[29]
  GI50: 437 nM
  TGI: 1640 nM
[30]
  GI50: 112 nM
  TGI: 663 nM
[31]
  GI50: 318 nM
  TGI: 1760 nM
[32]
  GI50: 254 nM
  TGI: 1420 nM
[33]
  GI50: 184 nM
  TGI: 1390 nM
[34]
  GI50: 221 nM
  TGI: 1230 nM
[35]
  GI50: 1480 nM
  TGI: 2810 nM
[36]
  GI50: 666 nM
  TGI: 2040 nM
[37]
  GI50: 1210 nM
  TGI: 2480 nM
[38]
  GI50: 1170 nM
  TGI: 2410 nM
[39]
  GI50: 1090 nM
  TGI: 2330 nM
[40]
  GI50: 476 nM
  TGI: 1580 nM
[41]
  GI50: 739 nM
  TGI: 2050 nM
[42]
  GI50: 1150 nM
  TGI: 2400 nM
[43]
  GI50: 1450 nM
  TGI: 2770 nM
[44]
  GI50: 453 nM
  TGI: 1820 nM
[45]
  GI50: 1270 nM
  TGI: 2530 nM
[46]
  GI50: 610 nM
  TGI: 2040 nM
[47]
  GI50: 334 nM
  TGI: 1440 nM
[48]
  GI50: 513 nM
  TGI: 1860 nM
[49]
  GI50: 1570 nM
  TGI: 2940 nM
[50]
  GI50: 322 nM
  TGI: 1440 nM
[51]
  GI50: 254 nM
  TGI: 1330 nM
[52]
  GI50: 1180 nM
  TGI: 2410 nM
[53]
  GI50: 988 nM
  TGI: 2180 nM
[54]
  GI50: 1210 nM
  TGI: 2480 nM
[55]
  GI50: 789 nM
  TGI: 2100 nM
[56]
  GI50: 385 nM
  TGI: 1770 nM
[57]
  GI50: 655 nM
  TGI: 1950 nM
